Experimental data published in the OligoGym collection.
Several values for one entry are separate records, joined by “and”; a condition that tells them apart may be missing. Equal entries are not always repeated. After the bases stand the sugars from the 5' end (letter, count) and the backbone: PS all phosphorothioate, else s phosphorothioate and o phosphodiester by linkage. Methylation of C is not given here. e = 2'-O-(2-methoxyethyl) (MOE); k = constrained ethyl (cEt); d = 2'-deoxy (DNA)

Molecular target: SOD1
Details: ASO

## TGTCAGCAGTCACATTGCCC (sugars e5 d10 e5, PS)
HepG2, 5 µM
  target mRNA inhibition: 55% and 49%

## TGTTTAATGTTTATCA (sugars ekddddddddekekee, linkages s1 o1 s8 o3 s2)
A431, 0.12 µM
  target mRNA inhibition: 0%
A431, 0.6 µM
  target mRNA inhibition: 13%
A431, 3 µM
  target mRNA inhibition: 31%
A431, 15 µM
  target mRNA inhibition: 49%

## TGTTTAATGTTTATCAGG (sugars e5 d8 e5, linkages s1 o3 s9 o2 s2)
A431, 0.12 µM
  target mRNA inhibition: 6%
A431, 0.6 µM
  target mRNA inhibition: 26%
A431, 3 µM
  target mRNA inhibition: 29%
A431, 15 µM
  target mRNA inhibition: 33%
HepG2, 0.222 µM
  target mRNA inhibition: 14%
HepG2, 0.667 µM
  target mRNA inhibition: 39%
HepG2, 2 µM
  target mRNA inhibition: 59%
HepG2, 6 µM
  target mRNA inhibition: 77%

## TGTTTATCAGGATACAT (sugars e2 k2 d9 k2 e2, PS)
HepG2, 0.1875 µM
  target mRNA inhibition: 37%
HepG2, 0.75 µM
  target mRNA inhibition: 63%
HepG2, 3 µM
  target mRNA inhibition: 83%
HepG2, 4 µM
  target mRNA inhibition: 83%
HepG2, 12 µM
  target mRNA inhibition: 95%

## TGTTTATTGGGCGATCC (sugars e2 k2 d9 k2 e2, PS)
HepG2, 4 µM
  target mRNA inhibition: 47%

## TTAAGATTACAGTGTTT (sugars e3 k2 d7 k2 e3, PS)
HepG2, 3 µM
  target mRNA inhibition: 54%

## TTAATGTTTATCAGGA (sugars kekeddddddddekek, linkages s1 o3 s8 o1 s2)
A431, 0.12 µM
  target mRNA inhibition: 3%
A431, 0.6 µM
  target mRNA inhibition: 45%
A431, 3 µM
  target mRNA inhibition: 65%
A431, 15 µM
  target mRNA inhibition: 81%
HepG2, 0.222 µM
  target mRNA inhibition: 53%
HepG2, 0.667 µM
  target mRNA inhibition: 82%
HepG2, 2 µM
  target mRNA inhibition: 91%
HepG2, 6 µM
  target mRNA inhibition: 96%

## TTAATGTTTATCAGGAT (sugars e4 d8 k2 e3, linkages s1 o2 s9 o2 s2)
A431, 0.062 µM
  target mRNA inhibition: 26%
A431, 0.185 µM
  target mRNA inhibition: 30%
A431, 0.556 µM
  target mRNA inhibition: 58%
A431, 0.6 µM
  target mRNA inhibition: 50%
A431, 1.667 µM
  target mRNA inhibition: 64%
A431, 5 µM
  target mRNA inhibition: 68%
A431, 15 µM
  target mRNA inhibition: 78%
SH-SY5Y, 0.062 µM
  target mRNA inhibition: 11%
SH-SY5Y, 0.185 µM
  target mRNA inhibition: 44%
SH-SY5Y, 0.556 µM
  target mRNA inhibition: 53%
SH-SY5Y, 1.667 µM
  target mRNA inhibition: 75%
SH-SY5Y, 5 µM
  target mRNA inhibition: 77%
SH-SY5Y, 15 µM
  target mRNA inhibition: 93%

## TTATCAGGATACATTTC (sugars e2 k2 d8 k2 e3, PS)
HepG2, 4 µM
  target mRNA inhibition: 57%

## TTATCAGGATACATTTC (sugars e2 k2 d9 k2 e2, PS)
HepG2, 4 µM
  target mRNA inhibition: 67%

## TTATTCACAGGCTTGAA (sugars e3 k2 d7 k2 e3, PS)
HepG2, 3 µM
  target mRNA inhibition: 10%

## TTCACAGGCTTGAATGA (sugars e2 k2 d9 k2 e2, PS)
HepG2, 5 µM
  target mRNA inhibition: 16%

## TTCACTGGTCCATTACT (sugars e3 k2 d7 k2 e3, PS)
HepG2, 3 µM
  target mRNA inhibition: 14%

## TTCAGTCAGTCCTTTAATGC (sugars e5 d10 e5, PS)
HepG2, 5 µM
  target mRNA inhibition: 24% and 21%

## TTCCACCTTTGCCCAAG (sugars e3 k2 d7 k2 e3, PS)
HepG2, 3 µM
  target mRNA inhibition: 87%

## TTCCCCACACCTTCACT (sugars e3 k2 d7 k2 e3, PS)
HepG2, 3 µM
  target mRNA inhibition: 8%

## TTCCTTCTGCTCGAAAT (sugars e3 k2 d7 k2 e3, PS)
HepG2, 3 µM
  target mRNA inhibition: 13%

## TTCTACAGCTAGCAGGA (sugars e2 k2 d9 k2 e2, PS)
HepG2, 0.1875 µM
  target mRNA inhibition: 10%
HepG2, 0.75 µM
  target mRNA inhibition: 57%
HepG2, 3 µM
  target mRNA inhibition: 84%
HepG2, 4 µM
  target mRNA inhibition: 79%
HepG2, 12 µM
  target mRNA inhibition: 94%

## TTCTCACTACAGGTACTTTA (sugars e5 d10 e5, PS)
HepG2, 5 µM
  target mRNA inhibition: 28%

## TTGGATTCTTTTAATAG (sugars e3 k2 d7 k2 e3, PS)
HepG2, 3 µM
  target mRNA inhibition: 8%

## TTGGGCGATCCCAATTA (sugars e2 k2 d9 k2 e2, PS)
HepG2, 4 µM
  target mRNA inhibition: 5%

## TTGGGCGATCCCAATTA (sugars e3 k2 d7 k2 e3, PS)
HepG2, 3 µM
  target mRNA inhibition: 26%

## TTTAATGCTTCCCCACACCT (sugars e5 d10 e5, PS)
HepG2, 4 µM
  target mRNA inhibition: 15%

## TTTAATGTTTATCAGG (sugars kekeddddddddekek, linkages s1 o3 s8 o1 s2)
A431, 0.12 µM
  target mRNA inhibition: 15%
A431, 0.6 µM
  target mRNA inhibition: 44%
A431, 3 µM
  target mRNA inhibition: 73%
A431, 15 µM
  target mRNA inhibition: 85%
HepG2, 0.222 µM
  target mRNA inhibition: 73%
HepG2, 0.667 µM
  target mRNA inhibition: 90%
HepG2, 2 µM
  target mRNA inhibition: 93%
HepG2, 6 µM
  target mRNA inhibition: 97%

## TTTATAGGCCAGACCTCCGC (sugars e5 d10 e5, PS)
HepG2, 4 µM
  target mRNA inhibition: 68% and 69%
HepG2, 12 µM
  target mRNA inhibition: 82%
